This note sets out measurements from US7723347B2, “Substituted phenylamino-pyrimidines” (Bayer Schering Pharma Aktiengesellschaft, priority 2004, dated 2010).

As usually defined, the IC50 is the midpoint of a concentration-inhibition curve.

Test [1] deals with recombinant Rho kinase II (ROKα) (UniProt Q62868). Briefly: Inhibition of recombinant Rho kinase II (ROKα), 33P uptake into S6 substrate peptide. The test is classed as biochemical. To be noted: Rho-kinase-catalyzed uptake of 33P into S6 peptide, 37° C., vs solvent control. How it is done:
(§1) The inhibition of the enzyme is investigated in an in vitro assay with recombinant Rho kinase II. The vessel-relaxing action is determined using phenylephrine-induced contractions of isolated rings of the saphenous artery of rabbits.
Inhibition of Recombinant Rho Kinase II (ROKα)
The activity of Rho kinase is determined by the uptake of ^33P phosphate into a substrate peptide. To this end, commercially available Rho kinase II (Upstate Biotechnology) is pre-incubated at 37° C. in the presence of the S6 phosphate-acceptor peptide with the test substances or a solvent control for 10 min. The kinase reaction is then started by addition of ^33P-labeled ATP. After 20 min at 37° C., the reaction is stopped by addition of H3PO4. Aliquots are pipetted onto filters and the filters are washed and then covered with scintillator. The radioactivity of the ^33P-labeled peptides bound to the filter is measured in a Micro-Beta counter. The IC50 value corresponds to the concentration of a test substance at which the Rho-kinase-catalyzed uptake of ^33P into the peptide is inhibited by 50%, compared to a solvent control.

In test [2] the test system is isolated rings of the saphenous artery of rabbits. Briefly: Vessel-relaxing action in vitro, phenylephrine-induced contractions of isolated saphenous artery rings. To be noted: Oryctolagus cuniculus; concentration reducing phenylephrine-induced contraction (3×10^−8 g/ml) of rabbit saphenous artery rings by 50%. How it is done:
as §1
Vessel-Relaxing Action In Vitro
Individual 3-mm-wide rings of the isolated saphenous artery of rabbits are introduced into 5 ml organ baths with Krebs-Henseleit solution (37° C., gassed with carbogen). The vessel tone is monitored isometrically and registered. Contractions are induced by addition of 3×10^−8 g of phenylephrine/ml, which is washed out again after 4 min. After a number of control cycles, the rings are pre-incubated with the substance to be examined, with the dosage being increased for each further cycle, and the subsequent contraction is compared to the intensity of the last control contraction. The concentration required to reduce the intensity of the control value by 50% (IC50) is calculated.

As to `Cc1c[nH]c2nccc(Nc3ccc(Nc4cc(Cl)nc(N)n4)cc3F)c12` [Example 10, 6-Chloro-N^4-{3-fluoro-4-[(3-methyl-1H-pyrrolo[2,3-b]pyridin-4-yl)amino]phenyl}pyrimidine-2,4-diamine], the concentration for half-maximal inhibition (IC50) in test [1] was 3 nM; in test [2], 8 nM.
As for `Cc1c[nH]c2nccc(Nc3ccc(Nc4cc(C(F)(F)F)nc(N)n4)cc3F)c12` [Example 11, N^4-{3-Fluoro-4-[(3-methyl-1H-pyrrolo[2,3-b]pyridin-4-yl)amino]phenyl}-6-(trifluoromethyl)pyrimidine-2,4-diamine], the figures for the IC50 in test [1] and in test [2] were 4 nM and 3 nM, respectively.
`Nc1nc(Nc2ccc(Cc3ccnc4[nH]ccc34)c(F)c2)cc(C(F)(F)F)n1` [Example 8, N^4-[3-Fluoro-4-(1H-pyrrolo[2,3-b]pyridin-4-ylmethyl)phenyl]-6-(trifluoromethyl)pyrimidine-2,4-diamine]: the results for the IC50 in test [1] and in test [2] were 7 nM and 86 nM, respectively.
